# Experimental data: ChEMBL document CHEMBL2321696, “Azaindole-Based Inhibitors of Cdc7 Kinase: Impact of the Pre-DFG Residue, Val 195” (ACS Med Chem Lett, 2013)
# Target: Glycogen synthase kinase-3 beta (Homo sapiens, UniProt P49841)
# Test: Inhibition of human recombinant GSK3beta
# Sequence of Glycogen synthase kinase-3 beta (P49841 whole entry): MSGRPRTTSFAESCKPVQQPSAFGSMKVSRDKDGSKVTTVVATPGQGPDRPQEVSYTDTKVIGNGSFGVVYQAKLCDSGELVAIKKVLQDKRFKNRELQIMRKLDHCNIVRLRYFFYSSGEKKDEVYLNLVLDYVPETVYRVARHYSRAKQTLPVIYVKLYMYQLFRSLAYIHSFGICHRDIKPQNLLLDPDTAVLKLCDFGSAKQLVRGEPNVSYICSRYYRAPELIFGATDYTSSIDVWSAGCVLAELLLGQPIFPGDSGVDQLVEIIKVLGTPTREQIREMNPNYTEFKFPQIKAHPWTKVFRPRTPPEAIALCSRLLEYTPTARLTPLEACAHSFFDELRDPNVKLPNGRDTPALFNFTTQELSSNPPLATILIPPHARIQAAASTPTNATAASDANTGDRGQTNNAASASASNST
row,Ki,Structure (SMILES)
1,58 nM,Clc1cc(-c2c[nH]c3ncccc23)cc(NC2CCCCC2)n1

# Target: Cell division cycle 7-related protein kinase (Homo sapiens, UniProt O00311)
# Test: Inhibition of human Cdc7 using biotin-C6linker-TPSDSLIYDDGLS as substrate after 1 hr
# Sequence of Cell division cycle 7-related protein kinase (O00311 whole entry): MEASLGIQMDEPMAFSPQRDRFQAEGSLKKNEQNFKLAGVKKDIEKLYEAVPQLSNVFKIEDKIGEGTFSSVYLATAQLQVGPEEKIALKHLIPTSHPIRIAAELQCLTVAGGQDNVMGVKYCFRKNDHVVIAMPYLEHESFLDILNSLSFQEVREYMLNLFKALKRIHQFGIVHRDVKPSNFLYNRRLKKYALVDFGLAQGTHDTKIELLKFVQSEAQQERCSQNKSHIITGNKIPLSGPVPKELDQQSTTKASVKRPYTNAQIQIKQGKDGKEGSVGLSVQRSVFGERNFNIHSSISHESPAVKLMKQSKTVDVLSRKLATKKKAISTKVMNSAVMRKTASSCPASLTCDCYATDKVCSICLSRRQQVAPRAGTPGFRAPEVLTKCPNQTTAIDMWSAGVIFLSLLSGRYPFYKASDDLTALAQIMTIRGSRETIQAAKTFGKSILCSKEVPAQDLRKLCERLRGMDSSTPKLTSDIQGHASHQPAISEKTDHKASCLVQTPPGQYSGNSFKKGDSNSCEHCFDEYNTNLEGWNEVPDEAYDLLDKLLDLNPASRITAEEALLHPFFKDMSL
row,Structure (SMILES),Ki
1,Cc1cc(-c2c[nH]c3ncccc23)cc(NCc2ccccc2)n1,15 nM
2,Cc1cc(-c2c[nH]c3ncccc23)cc(N[C@H]2CC[C@H](O)CC2)n1,27 nM
3,NC(=O)c1cc(-c2c[nH]c3ncccc23)cc(N[C@H]2CC[C@H](O)CC2)n1,67 nM
4,Fc1cc(-c2c[nH]c3ncccc23)cc(NC2CCCCC2)n1,3.2 nM
5,N#Cc1cc(-c2c[nH]c3ncccc23)cc(N[C@H]2CC[C@H](O)CC2)n1,5.5 nM
6,N[C@H]1CC[C@H](Nc2cc(-c3c[nH]c4ncccc34)cc(F)n2)CC1,3.4 nM
7,c1cnc2[nH]cc(-c3ccnc(NC4CCCCC4)c3)c2c1,8.7 nM
8,Cc1cc(-c2c[nH]c3ncccc23)cc(NC2CCCCC2)n1,13 nM
9,N#Cc1cc(-c2c[nH]c3ncccc23)cc(NC2CCCCC2)n1,7.7 nM

# The next compounds have a lower Ki than those just listed; values first:
row,Ki,Structure (SMILES)
1,0.28 nM,O=c1cc(-c2c[nH]c3ncccc23)cc(NC2CCCCC2)[nH]1
2,1.7 nM,O[C@H]1CC[C@H](Nc2cc(-c3c[nH]c4ncccc34)cc(F)n2)CC1
3,1.4 nM,N#Cc1cc(-c2c[nH]c3ncccc23)cc(NCc2ccccc2)n1
4,0.9 nM,Clc1cc(-c2c[nH]c3ncccc23)cc(NC2CCCCC2)n1
